This note sets out measurements from ChEMBL document CHEMBL1201862, “PubChem BioAssay data set” (2004).

Assay [1] has as its target Beta-galactosidase (Escherichia coli, UniProt Q8VNN2). The assay can be described thus: PubChem AID 485352. The format is functional.
For assay [2], the target named is Type-1 angiotensin II receptor (Homo sapiens, UniProt P30556). The assay can be described thus: AT1 receptor antagonists, dose response, selectivity assay for APJ receptor antagonist project, cell-based, uHTS hits (AID 463214).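 Further: antagonist potency against angiotensin II stimulated AT1 response.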 The format is functional.
Type-1 angiotensin II receptor, sequence (P30556 whole entry, the tested form may be a part): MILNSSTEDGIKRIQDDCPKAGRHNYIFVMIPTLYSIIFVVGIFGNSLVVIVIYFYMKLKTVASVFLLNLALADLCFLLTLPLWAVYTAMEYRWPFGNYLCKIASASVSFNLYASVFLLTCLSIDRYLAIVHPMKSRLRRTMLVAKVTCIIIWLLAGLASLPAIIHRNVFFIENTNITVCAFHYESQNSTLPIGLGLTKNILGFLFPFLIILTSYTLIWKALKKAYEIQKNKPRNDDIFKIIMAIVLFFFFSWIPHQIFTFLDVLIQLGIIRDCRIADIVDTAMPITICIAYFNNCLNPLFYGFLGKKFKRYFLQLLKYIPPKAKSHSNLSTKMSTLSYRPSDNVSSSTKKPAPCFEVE
A short description of assay [3]: inhibitors of HIV Env-driven cell fusion, dose response, cherry-pick (AID 652057). Format: functional, cell-based.
Assay [4] can be described thus: ZM109 Env clade C HIV-1 fusion inhibitors, dose response, HeLa effector, CEM target cells, luciferase, cherry-pick (AID 652058). The format is functional, cell-based.
Assay [5] in a line: off-target signal loss in HeLa-CEM21 co-culture – HeLa F-luc CTL cells, cherry-picked, counter-screen for HIV-1 Env fusion inhibitor project, dose response (AID 652040).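 Further: potency for signal decrease marking cytotoxic or nonspecific inhibition.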 Format: functional, cell-based. (In general: Counterscreens check selectivity or assay interference.)
Assay [6] in a line: inhibitors of clade B AD8 Env fusion, dose response, cell-based, cherry-pick (AID 652062).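 Further: luciferase signal from cell-cell fusion driven by HIV-1 clade B AD8 Env; potency is for inhibitors of fusion seen as a drop in luminescence.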 Format: functional.
Assay [7] concerns the target Beta-2 adrenergic receptor (Homo sapiens, UniProt P07550). The assay can be described thus: beta2AR agonists driving receptor internalization, dose response, cell-based, FAP fluorogen, flow cytometry, cherry pick 1 (AID 588763). Format: functional. (In flow cytometry, cells or beads pass a laser one at a time.)
Assay [8] relates to HEK293. The assay can be described thus: cells. To be noted: Homo sapiens. The format is functional, cell-based.
Assay [9] has as its target Nuclear receptor subfamily 0 group B member 1 (Homo sapiens, UniProt P51843). The assay can be described thus: Luminescence-based cell-based high throughput dose response assay for inhibitors of the orphan nuclear receptor subfamily 0, group B, member 1 (DAX1; NR0B1). [Related pubchem assays (depositor defined):AID504766, AID504790]. The format is functional.
Assay [10] can be described thus: THP-1 cell cytotoxicity, dose response, cytotoxicity control for non-replicating M. tuberculosis project (AID 489025). The format is functional.
A short description of assay [11]: HepG2 cell cytotoxicity, dose response, cytotoxicity control for non-replicating M. tuberculosis project (AID 489018). Format: functional. To be noted: Mycobacterium tuberculosis.
The nature of assay [12]: Vero E6 cell cytotoxicity, dose response, cytotoxicity control for non-replicating M. tuberculosis project, secondary assay (AID 492998). The format is functional, VeroE6. To be noted: Vero C1008.
Assay [13] has as its target T1, Microphthalmia-associated transcription factor (Homo sapiens, UniProt O75030).
T1 sequence (O75030 whole entry): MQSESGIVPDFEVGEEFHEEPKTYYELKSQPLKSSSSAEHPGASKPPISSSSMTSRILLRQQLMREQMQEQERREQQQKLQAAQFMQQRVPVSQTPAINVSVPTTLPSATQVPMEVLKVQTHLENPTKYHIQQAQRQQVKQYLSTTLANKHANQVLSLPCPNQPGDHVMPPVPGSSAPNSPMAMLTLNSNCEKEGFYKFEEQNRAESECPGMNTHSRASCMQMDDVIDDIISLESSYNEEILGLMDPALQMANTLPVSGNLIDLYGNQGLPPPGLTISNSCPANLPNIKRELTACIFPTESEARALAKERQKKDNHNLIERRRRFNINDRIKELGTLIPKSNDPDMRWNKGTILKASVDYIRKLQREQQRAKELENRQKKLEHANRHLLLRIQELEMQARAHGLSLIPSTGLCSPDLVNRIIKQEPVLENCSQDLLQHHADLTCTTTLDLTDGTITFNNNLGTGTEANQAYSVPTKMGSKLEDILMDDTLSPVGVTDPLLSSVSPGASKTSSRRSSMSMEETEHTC
The assay can be described thus: TRPM1 promoter luciferase signal decrease, dose response, MITF inhibitor project, cell-based, SK-MEL-5, cherry-picked, set 3 (AID 493073).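 Further: SK-MEL-5 melanoma cells with luciferase driven by the MITF target TRPM1 promoter.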 The format is functional.

Assay [14] is described as follows: cells. Format: functional.
Assay [15] addresses Glycogen synthase kinase-3 alpha (Homo sapiens, UniProt P49840). The assay can be described thus: Inhibition of Human GSK-3 alpha Activity Measured in Biochemical System Using Microfluidics - 2063-06_Inhibitor_Dose_DryPowder_Activity. [Related pubchem assays (depositor defined):AID2709].
Assay [16] deals with Glycogen synthase kinase-3 beta (Homo sapiens, UniProt P49841). Description: Inhibition of Human GSK-3 beta Activity Measured in Biochemical System Using Microfluidics - 2063-05_Inhibitor_Dose_DryPowder_Activity. [Related pubchem assays (depositor defined):AID2709].
Glycogen synthase kinase-3 beta, sequence (P49841 whole entry): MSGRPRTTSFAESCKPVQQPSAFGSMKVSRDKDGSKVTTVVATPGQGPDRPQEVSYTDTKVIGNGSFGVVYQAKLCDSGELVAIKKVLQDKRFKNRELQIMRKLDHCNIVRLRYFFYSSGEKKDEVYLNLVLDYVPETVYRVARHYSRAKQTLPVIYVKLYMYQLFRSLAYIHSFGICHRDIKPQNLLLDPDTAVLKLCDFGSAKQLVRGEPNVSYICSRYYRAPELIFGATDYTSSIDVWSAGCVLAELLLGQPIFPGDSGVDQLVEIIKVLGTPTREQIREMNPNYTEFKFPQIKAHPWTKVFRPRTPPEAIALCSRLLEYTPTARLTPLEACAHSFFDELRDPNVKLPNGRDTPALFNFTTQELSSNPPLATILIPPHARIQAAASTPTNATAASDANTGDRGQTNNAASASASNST
In assay [17] the test system is HEK293. The assay can be described thus: cytotoxicity in HEK293T NF-kB-Luc cells, SAR follow-up, cytotoxicity control for NF-kB activator project, cell-based, resazurin fluorescence (AID 493251). Format: functional. The note with it: Homo sapiens.
The test system of assay [18] is Jurkat. Description: SAR Analysis of small molecule inhibitors of both B-cell and T-cell specific antigen receptor-induced NF-kB activation in a Jurkat cell line using a luminescence assay. [Related pubchem assays (depositor defined):AID435003, AID435022, AID465, AID489029]. Format: functional, cell-based. The note with it: Homo sapiens.
For assay [19], the system named is HEK293. The assay can be described thus: SAR Analysis of small molecule inhibitors of both B-cell and T-cell specific antigen receptor-induced NF-kB activation in a HEK-293T cell line using a luminescence assay. [Related pubchem assays (depositor defined):AID435003, AID435022, AID465, AID489019, AID489029]. To be noted: Homo sapiens. Format: functional, cell-based.

The target of assay [20] is T2, Caspase-3 (Homo sapiens, UniProt P42574).
T2 sequence (P42574 whole entry): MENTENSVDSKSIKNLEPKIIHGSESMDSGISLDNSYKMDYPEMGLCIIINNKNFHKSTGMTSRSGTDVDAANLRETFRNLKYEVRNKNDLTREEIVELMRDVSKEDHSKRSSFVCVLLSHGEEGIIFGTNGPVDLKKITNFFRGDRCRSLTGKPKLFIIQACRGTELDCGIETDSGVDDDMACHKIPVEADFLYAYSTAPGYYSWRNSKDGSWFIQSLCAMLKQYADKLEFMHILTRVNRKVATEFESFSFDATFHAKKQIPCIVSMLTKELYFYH
The assay can be described thus: caspase-3 inhibitors as off-family protease, SAR follow-up, selectivity assay for SENP protease inhibitor project, biochemical, luminescence, set 2 (AID 588599). The format is functional.

Assay [21] addresses T3, Sentrin-specific protease 8 (Homo sapiens, UniProt Q96LD8).
T3 sequence (Q96LD8 whole entry): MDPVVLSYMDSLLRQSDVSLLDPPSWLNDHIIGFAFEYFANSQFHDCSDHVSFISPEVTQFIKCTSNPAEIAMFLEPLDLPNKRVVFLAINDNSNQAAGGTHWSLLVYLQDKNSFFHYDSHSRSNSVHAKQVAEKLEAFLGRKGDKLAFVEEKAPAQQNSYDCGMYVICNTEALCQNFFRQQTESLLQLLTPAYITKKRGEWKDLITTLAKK
The assay can be described thus: SENP8 protease inhibitors, SAR follow-up, biochemical, luminescence, set 2 (AID 588601). The format is functional.

Assay [22] deals with T4, Sentrin-specific protease 7 (Homo sapiens, UniProt Q9BQF6).
T4 sequence (Q9BQF6 whole entry): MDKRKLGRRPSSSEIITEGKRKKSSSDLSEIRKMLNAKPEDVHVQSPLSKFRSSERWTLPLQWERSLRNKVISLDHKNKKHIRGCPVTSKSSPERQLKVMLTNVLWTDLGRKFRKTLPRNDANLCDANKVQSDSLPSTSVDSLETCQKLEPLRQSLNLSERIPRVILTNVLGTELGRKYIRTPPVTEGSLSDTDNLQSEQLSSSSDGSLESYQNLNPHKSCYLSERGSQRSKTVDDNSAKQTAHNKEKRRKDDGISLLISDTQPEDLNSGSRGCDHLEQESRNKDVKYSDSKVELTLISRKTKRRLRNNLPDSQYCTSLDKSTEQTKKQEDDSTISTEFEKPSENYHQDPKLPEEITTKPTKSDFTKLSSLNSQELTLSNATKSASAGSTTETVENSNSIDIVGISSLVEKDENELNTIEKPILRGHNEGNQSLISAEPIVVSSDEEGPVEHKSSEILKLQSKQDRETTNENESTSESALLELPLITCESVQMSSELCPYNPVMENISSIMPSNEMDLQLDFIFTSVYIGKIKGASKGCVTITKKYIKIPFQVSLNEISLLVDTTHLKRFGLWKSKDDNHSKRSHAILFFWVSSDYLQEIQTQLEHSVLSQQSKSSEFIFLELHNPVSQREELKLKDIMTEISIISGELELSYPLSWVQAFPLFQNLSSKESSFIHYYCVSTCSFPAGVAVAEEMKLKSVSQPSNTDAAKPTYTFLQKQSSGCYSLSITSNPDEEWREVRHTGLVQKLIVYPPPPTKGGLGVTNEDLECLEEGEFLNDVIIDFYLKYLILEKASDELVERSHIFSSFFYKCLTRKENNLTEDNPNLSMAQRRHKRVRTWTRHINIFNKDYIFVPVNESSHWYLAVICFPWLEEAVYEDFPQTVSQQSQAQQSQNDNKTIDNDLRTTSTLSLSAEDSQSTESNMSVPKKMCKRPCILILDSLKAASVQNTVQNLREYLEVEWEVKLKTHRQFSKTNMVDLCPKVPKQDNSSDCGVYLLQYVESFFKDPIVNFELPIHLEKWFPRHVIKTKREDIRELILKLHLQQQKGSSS
Description: SENP7 protease inhibitors, SAR follow-up, biochemical, luminescence, set 2 (AID 588600). Format: functional.

Assay [23] concerns the target T5, Sentrin-specific protease 6 (Homo sapiens, UniProt Q9GZR1).
T5 sequence (Q9GZR1 whole entry): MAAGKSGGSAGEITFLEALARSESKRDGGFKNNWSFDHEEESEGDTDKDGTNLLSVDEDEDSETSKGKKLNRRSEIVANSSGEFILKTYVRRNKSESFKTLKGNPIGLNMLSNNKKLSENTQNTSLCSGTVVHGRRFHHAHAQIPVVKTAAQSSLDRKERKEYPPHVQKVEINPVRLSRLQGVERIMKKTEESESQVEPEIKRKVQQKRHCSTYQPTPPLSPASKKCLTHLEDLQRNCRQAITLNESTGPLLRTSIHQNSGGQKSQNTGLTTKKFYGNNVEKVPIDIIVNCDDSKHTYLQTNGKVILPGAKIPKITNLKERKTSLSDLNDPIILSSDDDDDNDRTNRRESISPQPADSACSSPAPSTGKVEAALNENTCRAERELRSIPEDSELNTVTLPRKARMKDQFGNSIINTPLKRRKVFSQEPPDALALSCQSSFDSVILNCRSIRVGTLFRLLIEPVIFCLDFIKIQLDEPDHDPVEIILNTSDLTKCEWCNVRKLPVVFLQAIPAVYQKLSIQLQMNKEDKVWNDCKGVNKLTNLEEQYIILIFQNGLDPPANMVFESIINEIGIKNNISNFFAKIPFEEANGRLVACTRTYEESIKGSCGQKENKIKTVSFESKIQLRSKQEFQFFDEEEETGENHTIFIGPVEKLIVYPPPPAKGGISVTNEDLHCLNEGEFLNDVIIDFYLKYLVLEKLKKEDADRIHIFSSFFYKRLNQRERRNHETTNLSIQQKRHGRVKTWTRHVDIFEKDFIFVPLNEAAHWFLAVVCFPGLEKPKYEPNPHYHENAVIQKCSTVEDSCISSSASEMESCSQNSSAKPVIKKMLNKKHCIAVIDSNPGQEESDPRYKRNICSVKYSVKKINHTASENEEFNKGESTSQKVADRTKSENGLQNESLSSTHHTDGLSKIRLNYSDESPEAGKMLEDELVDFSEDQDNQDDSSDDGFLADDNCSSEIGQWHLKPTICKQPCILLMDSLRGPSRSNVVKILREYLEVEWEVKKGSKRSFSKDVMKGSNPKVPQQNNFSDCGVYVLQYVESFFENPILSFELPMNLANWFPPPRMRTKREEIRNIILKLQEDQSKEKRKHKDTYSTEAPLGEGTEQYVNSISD
The assay can be described thus: SENP6 protease inhibitors, SAR follow-up, biochemical, luminescence, set 2 (AID 588598). The format is functional.

The source made the active and inactive calls.

Beta-galactosidase, sequence (Q8VNN2 whole entry): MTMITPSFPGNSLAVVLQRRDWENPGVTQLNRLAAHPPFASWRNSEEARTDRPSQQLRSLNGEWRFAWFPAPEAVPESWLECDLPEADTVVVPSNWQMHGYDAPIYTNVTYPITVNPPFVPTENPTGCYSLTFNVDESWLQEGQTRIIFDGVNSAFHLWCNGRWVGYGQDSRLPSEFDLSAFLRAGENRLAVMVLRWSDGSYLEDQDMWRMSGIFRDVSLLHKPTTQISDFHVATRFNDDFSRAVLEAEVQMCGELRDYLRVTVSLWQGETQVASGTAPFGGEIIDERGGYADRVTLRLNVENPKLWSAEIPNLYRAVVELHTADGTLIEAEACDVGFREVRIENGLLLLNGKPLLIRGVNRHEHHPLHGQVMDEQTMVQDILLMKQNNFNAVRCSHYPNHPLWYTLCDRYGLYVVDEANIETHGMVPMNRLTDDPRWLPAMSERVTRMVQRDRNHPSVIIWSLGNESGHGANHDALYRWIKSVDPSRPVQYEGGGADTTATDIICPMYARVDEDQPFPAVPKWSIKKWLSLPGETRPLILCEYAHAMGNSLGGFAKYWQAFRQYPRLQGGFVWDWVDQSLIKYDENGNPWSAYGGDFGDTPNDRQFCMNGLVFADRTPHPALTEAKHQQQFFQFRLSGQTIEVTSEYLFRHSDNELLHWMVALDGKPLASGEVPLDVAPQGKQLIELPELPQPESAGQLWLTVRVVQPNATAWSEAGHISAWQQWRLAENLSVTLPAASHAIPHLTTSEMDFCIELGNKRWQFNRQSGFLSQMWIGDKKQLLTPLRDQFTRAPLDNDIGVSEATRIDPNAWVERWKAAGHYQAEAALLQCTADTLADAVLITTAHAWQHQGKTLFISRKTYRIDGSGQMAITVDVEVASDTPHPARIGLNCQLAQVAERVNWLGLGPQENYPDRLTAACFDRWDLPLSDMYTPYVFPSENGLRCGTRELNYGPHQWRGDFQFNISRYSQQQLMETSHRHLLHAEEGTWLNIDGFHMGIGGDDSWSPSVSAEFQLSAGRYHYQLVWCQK
Glycogen synthase kinase-3 alpha, sequence (P49840 whole entry): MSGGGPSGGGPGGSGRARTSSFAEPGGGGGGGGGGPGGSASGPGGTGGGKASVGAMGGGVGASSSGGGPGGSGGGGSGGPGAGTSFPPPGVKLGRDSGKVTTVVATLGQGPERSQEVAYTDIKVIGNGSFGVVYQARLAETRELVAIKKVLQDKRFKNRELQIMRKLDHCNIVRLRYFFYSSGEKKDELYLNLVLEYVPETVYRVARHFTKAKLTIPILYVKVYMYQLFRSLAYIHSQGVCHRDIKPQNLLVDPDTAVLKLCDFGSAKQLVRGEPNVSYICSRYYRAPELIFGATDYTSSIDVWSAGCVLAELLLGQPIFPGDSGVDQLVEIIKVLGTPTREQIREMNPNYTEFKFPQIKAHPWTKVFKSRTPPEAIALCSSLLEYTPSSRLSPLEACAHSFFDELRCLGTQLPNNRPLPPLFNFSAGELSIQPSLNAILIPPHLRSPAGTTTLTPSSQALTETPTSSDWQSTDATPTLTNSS
Beta-2 adrenergic receptor, sequence (P07550 whole entry): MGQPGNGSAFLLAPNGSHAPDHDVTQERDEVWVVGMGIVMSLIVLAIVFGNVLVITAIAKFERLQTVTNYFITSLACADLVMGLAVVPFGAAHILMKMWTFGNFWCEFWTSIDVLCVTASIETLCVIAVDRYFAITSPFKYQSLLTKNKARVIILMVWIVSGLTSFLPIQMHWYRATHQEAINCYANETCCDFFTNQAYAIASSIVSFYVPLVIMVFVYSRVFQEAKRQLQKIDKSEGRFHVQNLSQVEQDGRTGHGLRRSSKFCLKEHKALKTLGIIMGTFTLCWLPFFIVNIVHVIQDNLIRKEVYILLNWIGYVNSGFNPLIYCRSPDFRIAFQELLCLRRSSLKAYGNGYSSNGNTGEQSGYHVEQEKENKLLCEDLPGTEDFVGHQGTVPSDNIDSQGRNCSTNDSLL
Nuclear receptor subfamily 0 group B member 1, sequence (P51843 whole entry): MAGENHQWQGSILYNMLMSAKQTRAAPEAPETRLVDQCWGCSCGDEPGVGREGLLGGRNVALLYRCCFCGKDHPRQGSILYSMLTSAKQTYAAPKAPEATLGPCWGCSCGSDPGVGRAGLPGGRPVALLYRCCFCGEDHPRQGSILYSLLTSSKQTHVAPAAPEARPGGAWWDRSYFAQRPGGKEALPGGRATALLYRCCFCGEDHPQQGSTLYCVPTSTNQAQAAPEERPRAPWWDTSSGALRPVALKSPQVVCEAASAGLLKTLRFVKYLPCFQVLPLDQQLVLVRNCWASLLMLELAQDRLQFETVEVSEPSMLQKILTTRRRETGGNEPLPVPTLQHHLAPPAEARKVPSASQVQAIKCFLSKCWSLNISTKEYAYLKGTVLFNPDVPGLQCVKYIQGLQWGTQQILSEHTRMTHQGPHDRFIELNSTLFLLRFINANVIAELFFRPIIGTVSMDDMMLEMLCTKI

For `O=C(CNc1ccc(F)cc1)c1ccccc1`, the EC50 in assay [1] was > 40 µM (inactive). Further, in assay [2], the concentration for half-maximal inhibition (IC50) was 7.06 µM (active). Besides, the half-maximal activity concentration (AC50) is 1.54 µM (active) in [3], 1.17 µM (active) in [4], 1.57 µM (active) in assay [5] and 4.61 µM (active) in [6].

On to `CN(CCOc1ccc(-c2ccn(S(=O)(=O)c3cccc4ccccc34)n2)cc1)c1ccccn1`, for which the EC50 in assay [7] was 2.53 µM (active).

Take `c1ccc(N2CCN(c3ccccc3)C2c2cccs2)cc1`: the IC50 in [8] and in assay [9] was > 67.5 µM (inactive) in each case.

Regarding `O=C1Nc2cc(C(=O)NCCN3CCCCCC3)ccc2S/C1=C\c1ccccc1`, the results for the CC50 in assay [10], in [11] and in assay [12] were 6.89 µM (active), 12.1 µM (active) and 12.5 µM (active), respectively. In addition, the AC50 in assay [13] was 9.78 µM (active); in [15], 63.7 µM (active); in [16] it was 2.29 µM (active). Also, the IC50 in assay [14] was 37.8 µM (active).

For `COc1cc(N)c2ncccc2c1`, the IC50 is 43.1 µM (inactive) in [17], 76.2 µM (inactive) in assay [18] and > 79 µM (inactive) in assay [19].

In the case of `Cc1[nH]c2ccccc2c1/C=N/NC(=O)c1cc2ccccc2cc1O`, the IC50 in assay [20] was > 99 µM (inactive); in assay [21], 79.4 µM (active); in assay [22] it was 95.7 µM (active); in [23], 83.4 µM (active).

Usually EC50 stands for the concentration needed to bring the measured effect to its halfway point. One may read the IC50 as the midpoint of a concentration-inhibition curve. By AC50 is commonly meant the concentration giving half of the maximal activity seen. A word on the CC50: it is the concentration giving 50% cytotoxicity.
